{"source": "patent US12187728B2", "about": "(Raze Therapeutics, Inc., priority 2015, dated 2025)"}
{"target": "T1, Human MTHFD2 (Homo sapiens, UniProt P13995)", "T1 construct": "residues 36-350 in Uniport ID P13995; His6 (N); made in house; host or cells: E. coli", "T1 sequence (P13995 36-350)": "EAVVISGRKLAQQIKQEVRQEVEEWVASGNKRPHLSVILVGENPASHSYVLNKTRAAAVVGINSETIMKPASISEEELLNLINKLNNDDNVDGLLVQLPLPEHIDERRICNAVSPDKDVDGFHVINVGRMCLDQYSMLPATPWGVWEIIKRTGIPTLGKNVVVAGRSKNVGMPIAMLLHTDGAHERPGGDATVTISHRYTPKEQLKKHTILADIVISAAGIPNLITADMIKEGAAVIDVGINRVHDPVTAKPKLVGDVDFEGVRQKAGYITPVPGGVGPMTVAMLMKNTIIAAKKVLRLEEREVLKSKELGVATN", "assay": "MTHFD2 Activity Assay (dehydrogenase activity, diaphorase/resazurin coupled fluorescence)", "format": "biochemical", "settings": "inhibitory activity (IC50 and/or binding constant); 0.2 nM MTHFD2, 11 concentrations", "from_the_text": "Human MTHFD2 (residues 36-350 in Uniport ID P13995) was expressed as an N-terminal His6 tagged protein and purified in E. coli using nickel capture followed by size-exclusion chromatography.\nMTHFD2 dehydrogenase activity oxidizes methylene tetrahyrofolate to methenyl-tetrahydrofolate with the concomitant reduction of NAD to NADH. MTHFD2 dehydrogenase activity was followed by coupling the generation of NADH to diaphorase catalyzed […] of resazurin to fluorescent resorufin. Briefly, control (DMSO) or compound was incubated with 0.2 nM MTHFD2 for 15 minutes in 10.5 μl assay buffer containing 100 mM Hepes, pH 8.0, 5 mM MgCl2, 5 mM KH2PO4, 0.05% BSA, 0.01% Tween-20 in a 384 well Griener, low volume, black plate. 10 μl of substrate buffer containing 70 μM CH2-THF, 1 mM NAD^+, 100 μM Resazurin and 0.42 mg/ml diaphorase was then added to initiate the reaction and the reaction plate was incubated for 30 minutes. 5 μl of 250 mM EDTA was then added to each well to stop the reaction and MTHFD2 activity was quantified by measuring resorufin fluorescence emission at 598 nm following excitation at 525 nm. Activity in positive control wells containing the complete reaction mixture and DMSO alone was set to 100% while activity in negative control wells with the complete reaction mix without MTHFD2 was set to 0%. 11 concentrations of each compound were tested and the fluorescent data at each concentration was normalized to the positive and negative controls and represented as % inhibition. Median inhibitory concentration (IC50) was calculated by fitting % inhibition at each concentration to a 4 parameter logistic fit equation using Graphpad Prizm.\nThe compound numbers correspond to the compound numbers in Table A (i.e., the example numbers).", "units": {"IC50": "nM"}}
{"smiles": "Cn1c(Nc2ccnc([C@H]3C[C@@H]3C(=O)O)c2)nc2c1c(=O)n(Cc1ccc(Cl)c(Cl)c1)c(=O)n2C", "note": "(racemic) [Example 279, (±)-trans-2-(4-((1-(3,4-dichlorobenzyl)-3,7-dimethyl-2,6-dioxo-2,3,6,7-tetrahydro-1H-purin-8-yl)amino)pyridin-2-yl)cyclopropanecarboxylic acid]", "IC50": "10 to 1000"}
{"smiles": "Cn1c(Nc2ccnc([C@H]3C[C@@H]3CO)c2)nc2c1c(=O)n(Cc1ccc(Cl)c(Cl)c1)c(=O)n2C", "note": "(racemic) [Example 284, (±)-trans-1-(3,4-dichlorobenzyl)-8-((2-(2-(hydroxymethyl)cyclopropyl)pyridin-4-yl)amino)-3,7-dimethyl-1H-purine-2,6(3H,7H)-dione]", "IC50": "10 to 1000"}
{"smiles": "Cn1c(Nc2ccnc([C@H]3C[C@@H]3C(N)=O)c2)nc2c1c(=O)n(Cc1ccc(Cl)c(Cl)c1)c(=O)n2C", "note": "(racemic) [Example 296, (±)-trans-2-(4-((1-(3,4-Dichlorobenzyl)-3,7-dimethyl-2,6-dioxo-2,3,6,7-tetrahydro-1H-purin-8-yl)amino)pyridin-2-yl)cyclopropanecarboxamide]", "IC50": "10 to 1000"}
{"smiles": "Cn1c(Nc2cccc([C@H]3C[C@@H]3C(=O)O)n2)nc2c1c(=O)n(Cc1ccc(Cl)c(Cl)c1)c(=O)n2C", "note": "(racemic) [Example 299, (±)-trans-2-(6-((1-(3,4-dichlorobenzyl)-3,7-dimethyl-2,6-dioxo-2,3,6,7-tetrahydro-1H-purin-8-yl)amino)pyridin-2-yl)cyclopropanecarboxylic acid]", "IC50": "10 to 1000"}
{"smiles": "Cn1c(Nc2cccc([C@@H]3C[C@H]3C(=O)O)n2)nc2c1c(=O)n(Cc1cc3c(Cl)cccc3[nH]1)c(=O)n2C", "note": "(racemic) [Example 315, (±)-trans-2-[6-[[1-[(4-chloro-1H-indol-2-yl)methyl]-3,7-dimethyl-2,6-dioxo-purin-8-yl]amino]-2-pyridyl]cyclopropanecarboxylic acid]", "IC50": "10 to 1000"}
{"smiles": "Cn1c(Nc2ccnc([C@H]3C[C@@H]3C(=O)O)c2)nc2c1c(=O)n(Cc1cc3c(Cl)cccc3[nH]1)c(=O)n2C", "note": "(racemic) [Example 321, (±)-trans-2-(4-((1-((4-chloro-1H-indol-2-yl)methyl)-3,7-dimethyl-2,6-dioxo-2,3,6,7-tetrahydro-1H-purin-8-yl)amino)pyridin-2-yl)cyclopropanecarboxylic acid]", "IC50": "10 to 1000"}
{"smiles": "Cn1c(N[C@H]2CC[C@H](CO)C2)nc2c1c(=O)n(Cc1ccc(Cl)c(Cl)c1)c(=O)n2C", "note": "(racemic) [Example 325, (±)-1-(3,4-dichlorobenzyl)-8-((trans)-3-(hydroxymethyl)cyclopentylamino)-3,7-dimethyl-1H-purine-2,6(3H,7H)-dione]", "IC50": "10 to 1000"}
{"smiles": "Cn1c(Nc2ccnc([C@H]3C[C@H]3C(=O)O)c2)nc2c1c(=O)n(Cc1ccc(Cl)c(Cl)c1)c(=O)n2C", "note": "(racemic) [Example 332, (±)-cis-2-(4-((1-(3,4-dichlorobenzyl)-3,7-dimethyl-2,6-dioxo-2,3,6,7-tetrahydro-1H-purin-8-yl)amino)pyridin-2-yl)cyclopropanecarboxylic acid]", "IC50": "10 to 1000"}
{"smiles": "Cn1c(Nc2cccc([C@H]3C[C@@H]3CO)n2)nc2c1c(=O)n(Cc1cc3c(Cl)cccc3[nH]1)c(=O)n2C", "note": "(racemic) [Example 335, (±)-trans-1-((4-chloro-1H-indol-2-yl)methyl)-8-((6-(-2-(hydroxymethyl)cyclopropyl)pyridin-2-yl)amino)-3,7-dimethyl-1H-purine-2,6(3H,7H)-dione]", "IC50": "1000 to 5000"}
{"smiles": "Cn1c(Nc2cccc([C@H]3C[C@H]3C(=O)O)n2)nc2c1c(=O)n(Cc1ccc(Cl)c(Cl)c1)c(=O)n2C", "note": "(racemic) [Example 357, (±)-cis-2-(6-((1-(3,4-dichlorobenzyl)-3,7-dimethyl-2,6-dioxo-2,3,6,7-tetrahydro-1H-purin-8-yl)amino)pyridin-2-yl)cyclopropanecarboxylic acid]", "IC50": "10 to 1000"}
